The values below are quoted from earlier work in patent publication US20250066562A1, “METHOD AND MATERIAL FOR DIFFERENTIATED SEQUESTRATION OF SUBSTANCES OF DIFFERENT SUBSTANCE GROUPS WITH THE AID OF HYDROGELS CONTAINING SULPHATED OR SULPHONATED COMPONENTS” (LEIBNIZ-INSTITUT FÜR POLYMERFORSCHUNG E.V., priority 2017, published 2025).

For data set [1], the target named is thrombin (Homo sapiens, UniProt P00734). The settings on record: according to Freudenberg et al., J. Controlled Release 220 (2015) 79-88.
In data set [2] the target is antithrombin (Homo sapiens, UniProt P01008). Particulars: according to Freudenberg et al., J. Controlled Release 220 (2015) 79-88.
antithrombin, sequence (P01008 33-464): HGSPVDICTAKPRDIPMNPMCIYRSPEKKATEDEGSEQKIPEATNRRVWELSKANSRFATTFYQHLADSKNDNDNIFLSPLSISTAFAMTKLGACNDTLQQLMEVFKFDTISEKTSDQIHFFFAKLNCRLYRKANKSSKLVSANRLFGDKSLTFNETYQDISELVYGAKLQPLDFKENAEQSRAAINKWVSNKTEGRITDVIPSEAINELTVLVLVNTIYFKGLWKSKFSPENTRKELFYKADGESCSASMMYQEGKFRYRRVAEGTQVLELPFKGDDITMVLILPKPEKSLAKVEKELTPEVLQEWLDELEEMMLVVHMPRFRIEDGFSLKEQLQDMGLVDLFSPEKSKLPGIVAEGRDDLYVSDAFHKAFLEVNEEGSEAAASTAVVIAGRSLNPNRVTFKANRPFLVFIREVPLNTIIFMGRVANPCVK

Heparin [GB1]: the Interaction with thrombin entry in data set [1] was “interaction”. In addition, in data set [2], the Interaction with antithrombin entry is given as “interaction”.

As to N-desulfated Heparin [GB2], the Interaction with thrombin entry in data set [1] was “lack of interaction”. For the same substance, the Interaction with antithrombin result in data set [2] was “lack of interaction”.
